Measured values taken from patent US9175003B2, “Substituted azoanthracene derivatives and intermediates for preparation thereof” (TransTech Pharma, LLC, priority 2009, dated 2015).

What follows are compounds tested against human GLP-1 receptor (Homo sapiens (Human), UniProt P43220). Conditions: read-out: Mean EC50; cAMP, HTRF detection, 30 min at 37° C., HEK-293 cells expressing cloned human GLP-1 receptor.
Sequence of human GLP-1 receptor (P43220 24-463): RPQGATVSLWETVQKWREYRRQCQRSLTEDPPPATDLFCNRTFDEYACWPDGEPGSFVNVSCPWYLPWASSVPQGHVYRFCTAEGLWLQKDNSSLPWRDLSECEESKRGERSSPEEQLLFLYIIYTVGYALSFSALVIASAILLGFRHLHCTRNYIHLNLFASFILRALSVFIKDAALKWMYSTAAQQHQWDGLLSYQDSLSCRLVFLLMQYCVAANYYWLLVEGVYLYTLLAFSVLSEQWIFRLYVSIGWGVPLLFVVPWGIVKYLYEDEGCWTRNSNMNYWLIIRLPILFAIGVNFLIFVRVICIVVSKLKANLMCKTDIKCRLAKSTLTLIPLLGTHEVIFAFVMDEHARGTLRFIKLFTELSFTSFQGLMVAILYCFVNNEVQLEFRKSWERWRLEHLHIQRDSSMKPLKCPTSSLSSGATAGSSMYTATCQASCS

| SMILES | EC50 [nM] |
| --- | --- |
| CCC(C)(C)NC(=O)N1Cc2cc3c(cc2C[C@H]1C(=O)N[C@@H](Cc1ccc(-c2ccnc(C)c2C)cc1)C(=O)O)OC[C@H](c1ccc(OCc2ccc(Cl)c(Cl)c2)cc1)O3 [Example 319, (S)-2-{[(3S,8S)-3-[4-(3,4-Dichloro-benzyloxy)-phenyl]-7-(1,1-dimethyl-propylcarbamoyl)-2,3,6,7,8,9-hexahydro-[1,4]dioxino[2,3-g]isoquinoline-8-carbonyl]-amino}-3-[4-(2,3-dimethyl-pyridin-4-yl)-phenyl]-propionic acid] | 183 |
| Cc1nccc(-c2ccc(C[C@H](NC(=O)[C@@H]3Cc4cc5c(cc4CN3C(=O)NC3(C)CCC3)O[C@@H](c3ccc(OCc4ccc(Cl)c(Cl)c4)cc3)CO5)C(=O)O)cc2)c1C [Example 320, (S)-2-{[(3S,8S)-3-[4-(3,4-Dichloro-benzyloxy)-phenyl]-7-(1-methyl-cyclobutylcarbamoyl)-2,3,6,7,8,9-hexahydro-[1,4]dioxino[2,3-g]isoquinoline-8-carbonyl]-amino}-3-[4-(2,3-dimethyl-pyridin-4-yl)-phenyl]-propionic acid] | 45 |
| Cc1nccc(-c2ccc(C[C@H](NC(=O)[C@@H]3Cc4cc5c(cc4CN3C(=O)NC(C)(C)c3ccccc3)O[C@@H](c3ccc(OCc4ccc(Cl)c(Cl)c4)cc3)CO5)C(=O)O)cc2)c1C [Example 323, (S)-2-{[(3S,8S)-3-[4-(3,4-Dichloro-benzyloxy)-phenyl]-7-(1-methyl-1-phenyl-ethylcarbamoyl)-2,3,6,7,8,9-hexahydro-[1,4]dioxino[2,3-g]isoquinoline-8-carbonyl]-amino}-3-[4-(2,3-dimethyl-pyridin-4-yl)-phenyl]-propionic acid] | 178 |
| Cc1nccc(-c2ccc(C[C@H](NC(=O)[C@@H]3Cc4cc5c(cc4CN3C(=O)c3ccn(C)n3)O[C@@H](c3ccc(OCc4ccc(Cl)c(Cl)c4)cc3)CO5)C(=O)O)cc2)c1C [Example 324, (S)-2-{[(3S,8S)-3-[4-(3,4-Dichloro-benzyloxy)-phenyl]-7-(1-methyl-1H-pyrazole-3-carbonyl)-2,3,6,7,8,9-hexahydro-[1,4]dioxino[2,3-g]isoquinoline-8-carbonyl]-amino}-3-[4-(2,3-dimethyl-pyridin-4-yl)-phenyl]-propionic acid] | 126 |
| Cc1ccc(C(=O)N2Cc3cc4c(cc3C[C@H]2C(=O)N[C@@H](Cc2ccc(-c3ccnc(C)c3C)cc2)C(=O)O)OC[C@H](c2ccc(OCc3ccc(Cl)c(Cl)c3)cc2)O4)s1 [Example 329, (S)-2-{[(3S,8S)-3-[4-(3,4-dichloro-benzyloxy)-phenyl]-7-(5-methyl-thiophene-2-carbonyl)-2,3,6,7,8,9-hexahydro-[1,4]dioxino[2,3-g]isoquinoline-8-carbonyl]-amino}-3-[4-(2,3-dimethyl-pyridin-4-yl)-phenyl]-propionic acid] | 81 |
| Cc1nccc(-c2ccc(C[C@H](NC(=O)[C@@H]3Cc4cc5c(cc4CN3C(=O)c3nc[nH]n3)O[C@@H](c3ccc(OCc4ccc(Cl)c(Cl)c4)cc3)CO5)C(=O)O)cc2)c1C [Example 332, (S)-2-{[(3S,8S)-3-[4-(3,4-Dichloro-benzyloxy)-phenyl]-7-(1H-[1,2,4]triazole-3-carbonyl)-2,3,6,7,8,9-hexahydro-[1,4]dioxino[2,3-g]isoquinoline-8-carbonyl]-amino}-3-[4-(2,3-dimethyl-pyridin-4-yl)-phenyl]-propionic acid] | 66 |
| Cc1nccc(-c2ccc(C[C@H](NC(=O)[C@@H]3Cc4cc5c(cc4CN3C(=O)C3CNC(=O)N3)O[C@@H](c3ccc(OCc4ccc(Cl)c(Cl)c4)cc3)CO5)C(=O)O)cc2)c1C (stereo partly drawn) [Example 333, (S)-2-{[(3S,8S)-3-[4-(3,4-Dichloro-benzyloxy)-phenyl]-7-(2-oxo-imidazolidine-4-carbonyl)-2,3,6,7,8,9-hexahydro-[1,4]dioxino[2,3-g]isoquinoline-8-carbonyl]-amino}-3-[4-(2,3-dimethyl-pyridin-4-yl)-phenyl]-propionic acid] | 195 |

The next lines start with the values.

| EC50 [nM] | SMILES |
| --- | --- |
| 115 | Cc1nccc(Oc2ccc(C[C@H](NC(=O)[C@@H]3Cc4cc5c(cc4CN3C(=O)N[C@@H](C)c3ccccc3)O[C@@H](c3ccc(OCc4ccc(Cl)c(Cl)c4)cc3)CO5)C(=O)O)cc2)c1C [Example 335, (S)-2-{[(3S,8S)-3-[4-(3,4-Dichloro-benzyloxy)-phenyl]-7-((S)-1-phenyl-ethylcarbamoyl)-2,3,6,7,8,9-hexahydro-[1,4]dioxino[2,3-g]isoquinoline-8-carbonyl]-amino}-3-[4-(2,3-dimethyl-pyridin-4-yloxy)-phenyl]-propionic acid] |
| 145 | Cc1nccc(Oc2ccc(C[C@H](NC(=O)[C@@H]3Cc4cc5c(cc4CN3C(=O)N[C@H](C)c3ccc(F)cc3)O[C@@H](c3ccc(OCc4ccc(Cl)c(Cl)c4)cc3)CO5)C(=O)O)cc2)c1C [Example 337, (S)-2-({(3S,8S)-3-[4-(3,4-Dichloro-benzyloxy)-phenyl]-7-[(R)-1-(4-fluoro-phenyl)-ethylcarbamoyl]-2,3,6,7,8,9-hexahydro-[1,4]dioxino[2,3-g]isoquinoline-8-carbonyl}-amino)-3-[4-(2,3-dimethyl-pyridin-4-yloxy)-phenyl]-propionic acid] |
| 377 | Cc1ccccc1NC(=O)N1Cc2cc3c(cc2C[C@H]1C(=O)N[C@@H](Cc1ccc(Oc2ccnc(C)c2C)cc1)C(=O)O)OC[C@H](c1ccc(OCc2ccc(Cl)c(Cl)c2)cc1)O3 [Example 338, (S)-2-({(3S,8S)-3-[4-(3,4-Dichloro-benzyloxy)-phenyl]-7-o-tolylcarbamoyl-2,3,6,7,8,9-hexahydro-[1,4]dioxino[2,3-g]isoquinoline-8-carbonyl}-amino)-3-[4-(2,3-dimethyl-pyridin-4-yloxy)-phenyl]-propionic acid] |
| 204 | Cc1nccc(Oc2ccc(C[C@H](NC(=O)[C@@H]3Cc4cc5c(cc4CN3C(=O)NC(C)C)O[C@@H](c3ccc(OCc4ccc(Cl)c(Cl)c4)cc3)CO5)C(=O)O)cc2)c1C [Example 342, (S)-2-({(3S,8S)-3-[4-(3,4-Dichloro-benzyloxy)-phenyl]-7-isopropylcarbamoyl-2,3,6,7,8,9-hexahydro-[1,4]dioxino[2,3-g]isoquinoline-8-carbonyl}-amino)-3-[4-(2,3-dimethyl-pyridin-4-yloxy)-phenyl]-propionic acid] |
| 124 | Cc1nccc(Oc2ccc(C[C@H](NC(=O)[C@@H]3Cc4cc5c(cc4CN3C(=O)NC(C)(C)C)O[C@@H](c3ccc(OCc4ccc(Cl)c(Cl)c4)cc3)CO5)C(=O)O)cc2)c1C [Example 343, (S)-2-({(3S,8S)-7-tert-Butylcarbamoyl-3-[4-(3,4-dichloro-benzyloxy)-phenyl]-2,3,6,7,8,9-hexahydro-[1,4]dioxino[2,3-g]isoquinoline-8-carbonyl}-amino)-3-[4-(2,3-dimethyl-pyridin-4-yloxy)-phenyl]-propionic acid] |
| 271 | Cc1nccc(Oc2ccc(C[C@H](NC(=O)[C@@H]3Cc4cc5c(cc4CN3C(=O)NC3CCCCC3)O[C@@H](c3ccc(OCc4ccc(Cl)c(Cl)c4)cc3)CO5)C(=O)O)cc2)c1C [Example 344, (S)-2-({(3S,8S)-7-Cyclohexylcarbamoyl-3-[4-(3,4-dichloro-benzyloxy)-phenyl]-2,3,6,7,8,9-hexahydro-[1,4]dioxino[2,3-g]isoquinoline-8-carbonyl}-amino)-3-[4-(2,3-dimethyl-pyridin-4-yloxy)-phenyl]-propionic acid] |
